Measurements from PubChem BioAssay (NCI).
“And” between values parts separate entries of the source, which are not always exact repeats. Equal values may be shown once.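 The concentration for 50% growth inhibition is given as GI50. Definition used: TGI = concentration required for complete inhibition of growth.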

Tests used:
Assay in all cases: NCI anticancer screen, dose series, 384-well format
CAKI-1 renal = tested on: CAKI-1 renal
A498 renal = tested on: A498 renal
KM12 colon = tested on: KM12 colon
IGROV1 ovarian = tested on: IGROV1 ovarian
HT29 colon = tested on: HT29 colon
MDA-MB-435 melanoma = tested on: MDA-MB-435 melanoma
SF-295 CNS = tested on: SF-295 CNS
T-47D breast = tested on: T-47D breast
M14 melanoma = tested on: M14 melanoma
UACC-62 melanoma = tested on: UACC-62 melanoma
COLO 205 colon = tested on: COLO 205 colon
MALME-3M melanoma = tested on: MALME-3M melanoma
OVCAR-5 ovarian = tested on: OVCAR-5 ovarian
NCI-H23 lung = tested on: NCI-H23 lung
SNB-75 CNS = tested on: SNB-75 CNS
NCI-H522 lung = tested on: NCI-H522 lung
SF-268 CNS = tested on: SF-268 CNS
ACHN renal = tested on: ACHN renal
SF-539 CNS = tested on: SF-539 CNS
LOX IMVI melanoma = tested on: LOX IMVI melanoma
NCI-H460 NSCLC = tested on: NCI-H460 NSCLC
SK-MEL-2 melanoma = tested on: SK-MEL-2 melanoma
HCT-15 colon = tested on: HCT-15 colon
PC-3 prostate = tested on: PC-3 prostate
TK-10 renal = tested on: TK-10 renal
HCT-116 colon = tested on: HCT-116 colon
NCI/ADR-RES ovarian = tested on: NCI/ADR-RES ovarian
CCRF-CEM leukemia = tested on: CCRF-CEM leukemia
BT-549 breast = tested on: BT-549 breast
MDA-MB-468 breast = tested on: MDA-MB-468 breast
RPMI-8226 leukemia = tested on: RPMI-8226 leukemia
SK-MEL-5 melanoma = tested on: SK-MEL-5 melanoma
K-562 leukemia = tested on: K-562 leukemia
NCI-H226 lung = tested on: NCI-H226 lung
OVCAR-3 ovarian = tested on: OVCAR-3 ovarian
HOP-92 NSCLC = tested on: HOP-92 NSCLC
OVCAR-4 ovarian = tested on: OVCAR-4 ovarian
A549 NSCLC = tested on: A549 NSCLC
SW-620 colon = tested on: SW-620 colon
SNB-19 CNS = tested on: SNB-19 CNS
SN12C renal = tested on: SN12C renal
RXF 393 renal = tested on: RXF 393 renal
SK-OV-3 ovarian = tested on: SK-OV-3 ovarian
MOLT-4 leukemia = tested on: MOLT-4 leukemia
OVCAR-8 ovarian = tested on: OVCAR-8 ovarian
U251 glioblastoma = tested on: U251 glioblastoma
MCF7 breast = tested on: MCF7 breast
786-0 renal = tested on: 786-0 renal
SR leukemia = tested on: SR leukemia
HOP-62 NSCLC = tested on: HOP-62 NSCLC
SK-MEL-28 melanoma = tested on: SK-MEL-28 melanoma
DU-145 prostate = tested on: DU-145 prostate
HS 578T breast = tested on: HS 578T breast
UO-31 renal = tested on: UO-31 renal
NCI-H322M lung = tested on: NCI-H322M lung
UACC-257 melanoma = tested on: UACC-257 melanoma
HCC-2998 colon = tested on: HCC-2998 colon
HL-60(TB) leukemia = tested on: HL-60(TB) leukemia
EKVX NSCLC = tested on: EKVX NSCLC
MDA-MB-231 breast = tested on: MDA-MB-231 breast

## O=S(=O)(NCCNC/C=C/c1ccc(Br)cc1)c1cccc2cnccc12
CAKI-1 renal
  GI50: 7.31 µM and 7.09 µM
  TGI: 20.1 µM and 19.8 µM
A498 renal
  GI50: 5.06 µM and 10.3 µM
  TGI: 19.6 µM and 22.1 µM
KM12 colon
  GI50: 4.08 µM and 6.28 µM
  TGI: 19 µM and 18.3 µM
IGROV1 ovarian
  GI50: 11.1 µM
  TGI: 23.3 µM
HT29 colon
  GI50: 3.17 µM and 4.08 µM
  TGI: 9.44 µM and 13.5 µM
MDA-MB-435 melanoma
  GI50: 13 µM and 13.2 µM
  TGI: 25.7 µM and 26 µM
SF-295 CNS
  GI50: 15.4 µM and 14.7 µM
  TGI: 28.8 µM and 27.9 µM
T-47D breast
  GI50: 2.78 µM and 4.36 µM
  TGI: 13.3 µM and 16.8 µM
M14 melanoma
  TGI: 3.48 µM and 18.4 µM
UACC-62 melanoma
  GI50: 814 nM and 3200 nM
  TGI: 6.43 µM and 10.8 µM
COLO 205 colon
  TGI: 2.6 µM and 16.1 µM
MALME-3M melanoma
  GI50: 391 nM and 2090 nM
  TGI: 1620 nM and 4150 nM
OVCAR-5 ovarian
  GI50: 12.7 µM
  TGI: 25.4 µM
NCI-H23 lung
  GI50: 6.06 µM and 10 µM
  TGI: 20.3 µM and 21.6 µM
SNB-75 CNS
  GI50: 10.3 µM and 10.8 µM
  TGI: 22 µM and 22.7 µM
NCI-H522 lung
  GI50: 12.1 µM and 13.7 µM
  TGI: 24.6 µM and 26.6 µM
SF-268 CNS
  GI50: 12 µM and 12.9 µM
  TGI: 24.4 µM and 25.6 µM
ACHN renal
  GI50: 11.7 µM and 13.5 µM
  TGI: 24 µM and 26.4 µM
SF-539 CNS
  GI50: 5.11 µM and 10.2 µM
  TGI: 19.7 µM and 21.9 µM
LOX IMVI melanoma
  GI50: 11.6 µM and 10.2 µM
  TGI: 23.9 µM and 22 µM
NCI-H460 NSCLC
  GI50: 4.63 µM and 4.23 µM
  TGI: 15.9 µM and 14.5 µM
SK-MEL-2 melanoma
  GI50: 2740 nM
  TGI: 6.86 µM
HCT-15 colon
  GI50: 13.2 µM and 10.1 µM
  TGI: 26.1 µM and 21.9 µM
PC-3 prostate
  GI50: 3.6 µM and 6.95 µM
  TGI: 18.6 µM and 19.8 µM
TK-10 renal
  GI50: 10.4 µM and 11.3 µM
  TGI: 22.2 µM and 23.5 µM
HCT-116 colon
  GI50: 5.55 µM and 5.73 µM
  TGI: 17.9 µM and 17.3 µM
NCI/ADR-RES ovarian
  GI50: 13.2 µM and 14.6 µM
  TGI: 26.1 µM and 27.9 µM
CCRF-CEM leukemia
  GI50: 3.81 µM and 5.3 µM
  TGI: 11.4 µM and 16.8 µM
BT-549 breast
  GI50: 3.57 µM and 6.51 µM
  TGI: 11.8 µM and 19.2 µM
MDA-MB-468 breast
  GI50: 3.44 µM and 3.33 µM
  TGI: 9.73 µM and 12.7 µM
RPMI-8226 leukemia
  GI50: 815 nM and 3150 nM
  TGI: 5.43 µM and 11.4 µM
SK-MEL-5 melanoma
  GI50: 2.89 µM and 3.31 µM
  TGI: 10.1 µM and 12.7 µM
K-562 leukemia
  GI50: 1880 nM and 3300 nM
  TGI: 3.88 µM and 10.6 µM
NCI-H226 lung
  GI50: 11.2 µM and 15.4 µM
  TGI: 23.4 µM and 28.8 µM
OVCAR-3 ovarian
  GI50: 11.3 µM and 14.7 µM
  TGI: 23.4 µM and 28 µM
HOP-92 NSCLC
  GI50: 10.7 µM and 10.8 µM
  TGI: 22.6 µM and 22.7 µM
OVCAR-4 ovarian
  GI50: 12.8 µM and 13.8 µM
  TGI: 25.5 µM and 26.8 µM
A549 NSCLC
  GI50: 14 µM
  TGI: 27.1 µM
SW-620 colon
  GI50: 14 µM and 14.8 µM
  TGI: 27.1 µM and 28.2 µM
SNB-19 CNS
  GI50: 17 µM and 16.1 µM
  TGI: 30.8 µM and 29.7 µM
SN12C renal
  GI50: 13.4 µM and 13.1 µM
  TGI: 26.3 µM and 25.8 µM
RXF 393 renal
  GI50: 1.08 µM and 5.38 µM
  TGI: 8.71 µM and 18 µM
SK-OV-3 ovarian
  GI50: 10.4 µM and 10.9 µM
  TGI: 22.2 µM and 22.9 µM
MOLT-4 leukemia
  GI50: 2.47 µM and 3.65 µM
  TGI: 6.41 µM and 12.7 µM
OVCAR-8 ovarian
  GI50: 12.2 µM and 11.8 µM
  TGI: 24.7 µM and 24.2 µM
U251 glioblastoma
  GI50: 12.3 µM and 12.5 µM
  TGI: 24.9 µM and 25.2 µM
MCF7 breast
  GI50: 3.15 µM and 5.52 µM
  TGI: 18.8 µM and 18.2 µM
786-0 renal
  GI50: 7.52 µM and 11.2 µM
  TGI: 20.1 µM and 23.3 µM
SR leukemia
  GI50: 340 nM and 3270 nM
  TGI: 1.15 µM and 5.05 µM
HOP-62 NSCLC
  GI50: 11.8 µM and 14.2 µM
  TGI: 24.2 µM and 27.3 µM
SK-MEL-28 melanoma
  GI50: 1880 nM and 4090 nM
  TGI: 15.6 µM and 14 µM
DU-145 prostate
  GI50: 14.5 µM and 13.8 µM
  TGI: 27.8 µM and 26.9 µM
HS 578T breast
  GI50: 4.89 µM and 8.58 µM
  TGI: 16.5 µM and 20.7 µM
UO-31 renal
  GI50: 12.5 µM and 13.1 µM
  TGI: 25.1 µM and 26 µM
NCI-H322M lung
  GI50: 10.2 µM and 10.7 µM
  TGI: 21.9 µM and 22.6 µM
UACC-257 melanoma
  GI50: 2200 nM and 2340 nM
  TGI: 4.51 µM and 5.87 µM
HCC-2998 colon
  GI50: 2150 nM and 2090 nM
  TGI: 3.82 µM and 3.91 µM
HL-60(TB) leukemia
  GI50: 1210 nM and 3620 nM
  TGI: 10.8 µM and 12.6 µM
EKVX NSCLC
  GI50: 6.07 µM and 10 µM
  TGI: 18.9 µM and 21.7 µM
MDA-MB-231 breast
  GI50: 11.5 µM and 10.9 µM
  TGI: 23.8 µM and 22.9 µM
